Experimental data reported in ChEMBL document CHEMBL1201862, “PubChem BioAssay data set” (2004).
Activity calls are given as the source filed them.

Tests used:
Assay type in all cases: functional
[1] = target: T1, Sentrin-specific protease 6 (Homo sapiens, UniProt Q9GZR1);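 further: Luminescence-based dose-response confirmatory assay of SENP6 inhibition, following up an ultra-high-throughput screen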
T1 sequence (Q9GZR1 whole entry): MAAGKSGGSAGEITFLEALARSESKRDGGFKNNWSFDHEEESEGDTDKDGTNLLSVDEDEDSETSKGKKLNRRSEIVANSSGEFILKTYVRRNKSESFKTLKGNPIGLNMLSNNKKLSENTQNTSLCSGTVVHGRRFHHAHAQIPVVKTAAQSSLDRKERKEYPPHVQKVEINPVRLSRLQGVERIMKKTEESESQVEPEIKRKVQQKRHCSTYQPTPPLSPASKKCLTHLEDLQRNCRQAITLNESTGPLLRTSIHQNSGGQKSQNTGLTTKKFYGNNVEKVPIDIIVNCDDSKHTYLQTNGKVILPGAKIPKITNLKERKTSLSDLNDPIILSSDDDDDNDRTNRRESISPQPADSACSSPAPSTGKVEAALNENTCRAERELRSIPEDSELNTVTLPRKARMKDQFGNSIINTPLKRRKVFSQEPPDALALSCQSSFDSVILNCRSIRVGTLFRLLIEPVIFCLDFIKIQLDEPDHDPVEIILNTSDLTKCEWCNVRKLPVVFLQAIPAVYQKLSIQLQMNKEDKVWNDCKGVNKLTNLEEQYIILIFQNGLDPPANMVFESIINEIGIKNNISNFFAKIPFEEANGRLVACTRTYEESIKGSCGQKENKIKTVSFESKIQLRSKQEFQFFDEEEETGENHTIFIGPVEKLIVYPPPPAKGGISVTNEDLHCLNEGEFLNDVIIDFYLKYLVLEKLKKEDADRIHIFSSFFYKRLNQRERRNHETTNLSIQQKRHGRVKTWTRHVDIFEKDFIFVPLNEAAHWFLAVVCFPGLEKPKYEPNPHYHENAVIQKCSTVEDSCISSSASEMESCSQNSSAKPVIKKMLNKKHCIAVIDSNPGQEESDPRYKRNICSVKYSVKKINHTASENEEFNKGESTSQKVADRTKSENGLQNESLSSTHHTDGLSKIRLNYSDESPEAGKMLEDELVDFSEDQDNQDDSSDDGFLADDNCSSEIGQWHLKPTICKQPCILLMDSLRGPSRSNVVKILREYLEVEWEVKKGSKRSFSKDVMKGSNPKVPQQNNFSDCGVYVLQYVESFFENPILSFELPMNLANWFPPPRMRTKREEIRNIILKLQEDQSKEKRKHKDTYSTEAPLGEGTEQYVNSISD

[2] = target: T2, Sentrin-specific protease 8 (Homo sapiens, UniProt Q96LD8);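 further: luminescence read-out of SENP8 inhibition, dose-response confirmation following an ultra-high-throughput screen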
T2 sequence (Q96LD8 whole entry): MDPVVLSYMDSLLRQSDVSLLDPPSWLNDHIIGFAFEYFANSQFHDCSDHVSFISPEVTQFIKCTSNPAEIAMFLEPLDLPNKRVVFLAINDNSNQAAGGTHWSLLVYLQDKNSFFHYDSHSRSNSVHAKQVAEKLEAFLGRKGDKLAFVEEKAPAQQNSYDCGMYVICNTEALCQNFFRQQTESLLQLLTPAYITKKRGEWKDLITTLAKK

Aurora kinase B = Aurora kinase B (Homo sapiens, UniProt Q96GD4)
Chain of Aurora kinase B (Q96GD4 whole entry): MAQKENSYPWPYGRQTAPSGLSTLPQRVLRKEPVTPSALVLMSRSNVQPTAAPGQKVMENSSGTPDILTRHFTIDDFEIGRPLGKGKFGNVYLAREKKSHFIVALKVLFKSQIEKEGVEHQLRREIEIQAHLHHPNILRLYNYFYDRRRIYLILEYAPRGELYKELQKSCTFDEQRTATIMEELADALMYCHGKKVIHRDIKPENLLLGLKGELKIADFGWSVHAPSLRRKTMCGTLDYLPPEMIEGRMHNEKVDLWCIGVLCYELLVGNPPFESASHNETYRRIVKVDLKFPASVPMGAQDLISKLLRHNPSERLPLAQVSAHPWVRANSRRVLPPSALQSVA

[3] = target: Dual specificity tyrosine-phosphorylation-regulated kinase 1B (Homo sapiens, UniProt Q9Y463); assay: Navigating the Kinome. Panel member name: DYRK1B
[4] = target: Serine/threonine-protein kinase TBK1 (Homo sapiens, UniProt Q9UHD2); assay: Navigating the Kinome. Panel member name: TBK1
Chain of Serine/threonine-protein kinase TBK1 (Q9UHD2 whole entry): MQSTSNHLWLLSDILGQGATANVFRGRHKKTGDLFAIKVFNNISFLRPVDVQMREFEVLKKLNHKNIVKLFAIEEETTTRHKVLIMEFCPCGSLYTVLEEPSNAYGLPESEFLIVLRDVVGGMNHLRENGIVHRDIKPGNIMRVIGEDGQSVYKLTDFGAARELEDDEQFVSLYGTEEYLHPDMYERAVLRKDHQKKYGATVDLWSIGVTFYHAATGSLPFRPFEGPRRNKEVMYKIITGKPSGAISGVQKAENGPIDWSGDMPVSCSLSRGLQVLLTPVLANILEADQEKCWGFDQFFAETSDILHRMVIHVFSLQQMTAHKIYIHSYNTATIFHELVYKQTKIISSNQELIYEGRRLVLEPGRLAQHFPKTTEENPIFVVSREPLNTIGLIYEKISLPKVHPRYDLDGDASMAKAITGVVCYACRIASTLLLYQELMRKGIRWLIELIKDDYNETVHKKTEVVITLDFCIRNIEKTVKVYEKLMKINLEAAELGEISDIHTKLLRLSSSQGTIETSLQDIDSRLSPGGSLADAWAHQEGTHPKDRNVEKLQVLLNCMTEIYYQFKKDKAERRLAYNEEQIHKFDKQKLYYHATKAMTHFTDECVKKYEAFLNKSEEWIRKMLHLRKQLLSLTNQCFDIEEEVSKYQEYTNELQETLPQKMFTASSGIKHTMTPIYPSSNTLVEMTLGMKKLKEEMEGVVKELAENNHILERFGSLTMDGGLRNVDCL

[5] = target: Cyclin-dependent kinase 5 (Homo sapiens, UniProt Q00535);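 further: CDK5 measured as one member of a kinase profiling panel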
Activin receptor type-1 = Activin receptor type-1 (Homo sapiens, UniProt Q04771); assay: Navigating the Kinome. Panel member name: ACVR1
Chain of Activin receptor type-1 (Q04771 whole entry): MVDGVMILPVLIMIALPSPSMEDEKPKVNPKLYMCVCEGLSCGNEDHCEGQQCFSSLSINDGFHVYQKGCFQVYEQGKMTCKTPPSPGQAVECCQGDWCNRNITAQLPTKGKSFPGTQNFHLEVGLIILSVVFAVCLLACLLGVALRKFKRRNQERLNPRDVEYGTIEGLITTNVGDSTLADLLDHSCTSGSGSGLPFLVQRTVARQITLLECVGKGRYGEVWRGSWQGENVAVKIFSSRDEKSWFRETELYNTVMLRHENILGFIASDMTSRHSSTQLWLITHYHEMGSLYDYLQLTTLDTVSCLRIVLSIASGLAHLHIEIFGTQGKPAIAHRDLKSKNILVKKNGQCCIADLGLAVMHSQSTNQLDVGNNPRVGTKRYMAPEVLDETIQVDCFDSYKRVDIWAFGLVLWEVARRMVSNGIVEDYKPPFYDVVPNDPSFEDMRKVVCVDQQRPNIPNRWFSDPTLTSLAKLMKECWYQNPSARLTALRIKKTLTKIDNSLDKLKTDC

[6] = target: Macrophage-stimulating protein receptor (Homo sapiens, UniProt Q04912); assay: Navigating the Kinome. Panel member name: MST1R
[7] = target: Proto-oncogene tyrosine-protein kinase receptor Ret (Homo sapiens, UniProt P07949);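 further: measured within a kinome-wide profiling panel, RET as the panel member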
[8] = target: Glycogen synthase kinase-3 beta (Homo sapiens, UniProt P49841);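 further: value comes from a broad kinome profiling panel, with GSK3B as the panel member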
Chain of Glycogen synthase kinase-3 beta (P49841 whole entry): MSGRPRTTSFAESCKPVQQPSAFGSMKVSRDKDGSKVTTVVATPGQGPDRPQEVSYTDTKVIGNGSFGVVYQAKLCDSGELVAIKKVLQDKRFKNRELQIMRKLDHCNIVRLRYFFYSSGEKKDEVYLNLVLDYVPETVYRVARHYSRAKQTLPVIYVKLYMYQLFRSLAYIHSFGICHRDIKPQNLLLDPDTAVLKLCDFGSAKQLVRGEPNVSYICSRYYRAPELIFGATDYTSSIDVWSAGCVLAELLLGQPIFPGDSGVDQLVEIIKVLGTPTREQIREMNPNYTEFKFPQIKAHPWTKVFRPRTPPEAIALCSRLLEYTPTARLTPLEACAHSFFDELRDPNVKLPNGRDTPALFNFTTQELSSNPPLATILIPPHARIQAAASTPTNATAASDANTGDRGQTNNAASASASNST

[9] = target: Insulin-like growth factor 1 receptor (Homo sapiens, UniProt P08069); assay: Navigating the Kinome. Panel member name: IGF1R
Chain of Insulin-like growth factor 1 receptor (P08069 31-736 limits assumed): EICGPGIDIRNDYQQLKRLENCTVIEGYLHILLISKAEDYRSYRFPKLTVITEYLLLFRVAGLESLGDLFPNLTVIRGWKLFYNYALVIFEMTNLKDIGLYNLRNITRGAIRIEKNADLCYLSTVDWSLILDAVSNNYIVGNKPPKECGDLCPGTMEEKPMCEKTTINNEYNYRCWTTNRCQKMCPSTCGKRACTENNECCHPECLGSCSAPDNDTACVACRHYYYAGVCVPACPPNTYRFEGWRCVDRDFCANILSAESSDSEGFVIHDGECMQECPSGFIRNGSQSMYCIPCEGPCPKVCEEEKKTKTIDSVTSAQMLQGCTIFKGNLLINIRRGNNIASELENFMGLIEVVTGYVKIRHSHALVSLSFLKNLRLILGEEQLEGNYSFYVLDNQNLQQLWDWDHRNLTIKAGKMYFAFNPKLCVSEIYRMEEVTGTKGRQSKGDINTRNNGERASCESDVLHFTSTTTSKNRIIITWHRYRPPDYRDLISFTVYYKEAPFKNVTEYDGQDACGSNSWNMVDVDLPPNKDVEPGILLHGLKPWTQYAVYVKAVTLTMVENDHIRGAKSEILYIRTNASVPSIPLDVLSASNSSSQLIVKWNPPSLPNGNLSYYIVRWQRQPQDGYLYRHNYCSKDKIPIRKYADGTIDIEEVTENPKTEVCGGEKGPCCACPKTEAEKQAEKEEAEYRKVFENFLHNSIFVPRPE
Chain of Insulin-like growth factor 1 receptor (P08069 741-1367 limits assumed): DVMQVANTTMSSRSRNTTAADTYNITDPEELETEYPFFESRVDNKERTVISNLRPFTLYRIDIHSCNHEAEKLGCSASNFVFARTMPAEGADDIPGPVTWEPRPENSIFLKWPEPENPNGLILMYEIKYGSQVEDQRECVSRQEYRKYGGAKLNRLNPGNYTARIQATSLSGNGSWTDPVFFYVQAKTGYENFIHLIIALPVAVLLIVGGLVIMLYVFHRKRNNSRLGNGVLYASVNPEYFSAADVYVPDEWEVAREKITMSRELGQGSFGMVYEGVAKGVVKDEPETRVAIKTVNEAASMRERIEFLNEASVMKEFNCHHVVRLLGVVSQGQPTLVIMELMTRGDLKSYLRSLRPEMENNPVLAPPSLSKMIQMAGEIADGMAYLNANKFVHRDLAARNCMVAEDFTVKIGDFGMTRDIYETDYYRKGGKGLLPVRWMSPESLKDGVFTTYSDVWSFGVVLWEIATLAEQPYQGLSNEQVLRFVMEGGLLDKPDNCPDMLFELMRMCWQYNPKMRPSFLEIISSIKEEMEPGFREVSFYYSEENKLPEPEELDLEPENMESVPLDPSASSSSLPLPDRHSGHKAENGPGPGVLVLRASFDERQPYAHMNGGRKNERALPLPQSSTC

[10] = target: cAMP-dependent protein kinase catalytic subunit alpha (Homo sapiens, UniProt P17612)
[11] = target: Fibroblast growth factor receptor 1 (Homo sapiens, UniProt P11362)
Chain of Fibroblast growth factor receptor 1 (P11362 whole entry): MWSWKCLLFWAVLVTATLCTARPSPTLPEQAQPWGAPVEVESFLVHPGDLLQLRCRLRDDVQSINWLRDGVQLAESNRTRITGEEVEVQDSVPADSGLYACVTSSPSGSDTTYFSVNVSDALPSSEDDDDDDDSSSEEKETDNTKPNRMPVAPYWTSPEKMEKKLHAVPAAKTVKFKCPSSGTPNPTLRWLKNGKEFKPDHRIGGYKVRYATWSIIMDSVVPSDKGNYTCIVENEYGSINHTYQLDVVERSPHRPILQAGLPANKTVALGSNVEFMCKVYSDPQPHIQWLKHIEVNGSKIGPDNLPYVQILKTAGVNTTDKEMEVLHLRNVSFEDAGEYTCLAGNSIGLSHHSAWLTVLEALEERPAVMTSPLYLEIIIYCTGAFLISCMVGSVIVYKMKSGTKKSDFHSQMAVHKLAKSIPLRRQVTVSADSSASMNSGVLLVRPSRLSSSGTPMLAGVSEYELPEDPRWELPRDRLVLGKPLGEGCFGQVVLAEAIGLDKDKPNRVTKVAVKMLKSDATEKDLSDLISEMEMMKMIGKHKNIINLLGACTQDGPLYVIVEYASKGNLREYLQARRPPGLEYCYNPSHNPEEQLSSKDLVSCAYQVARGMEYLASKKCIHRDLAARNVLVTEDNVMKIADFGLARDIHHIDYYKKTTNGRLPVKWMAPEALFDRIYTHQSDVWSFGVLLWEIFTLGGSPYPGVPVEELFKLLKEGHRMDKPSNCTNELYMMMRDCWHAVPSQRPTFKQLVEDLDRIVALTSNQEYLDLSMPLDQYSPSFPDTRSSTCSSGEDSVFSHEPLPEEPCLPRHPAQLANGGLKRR

[12] = target: Dual specificity tyrosine-phosphorylation-regulated kinase 1A (Homo sapiens, UniProt Q13627);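 further: measured against DYRK1A as one member of a broad kinome profiling panel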
[13] = target: Serine/threonine-protein kinase PAK 4 (Homo sapiens, UniProt O96013);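 further: value obtained within a kinome profiling panel in which PAK4 was one of the panel members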
[14] = target: BDNF/NT-3 growth factors receptor (Homo sapiens, UniProt Q16620);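 further: NTRK2 measured as one member of a broad kinome-wide kinase profiling panel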
Chain of BDNF/NT-3 growth factors receptor (Q16620 whole entry): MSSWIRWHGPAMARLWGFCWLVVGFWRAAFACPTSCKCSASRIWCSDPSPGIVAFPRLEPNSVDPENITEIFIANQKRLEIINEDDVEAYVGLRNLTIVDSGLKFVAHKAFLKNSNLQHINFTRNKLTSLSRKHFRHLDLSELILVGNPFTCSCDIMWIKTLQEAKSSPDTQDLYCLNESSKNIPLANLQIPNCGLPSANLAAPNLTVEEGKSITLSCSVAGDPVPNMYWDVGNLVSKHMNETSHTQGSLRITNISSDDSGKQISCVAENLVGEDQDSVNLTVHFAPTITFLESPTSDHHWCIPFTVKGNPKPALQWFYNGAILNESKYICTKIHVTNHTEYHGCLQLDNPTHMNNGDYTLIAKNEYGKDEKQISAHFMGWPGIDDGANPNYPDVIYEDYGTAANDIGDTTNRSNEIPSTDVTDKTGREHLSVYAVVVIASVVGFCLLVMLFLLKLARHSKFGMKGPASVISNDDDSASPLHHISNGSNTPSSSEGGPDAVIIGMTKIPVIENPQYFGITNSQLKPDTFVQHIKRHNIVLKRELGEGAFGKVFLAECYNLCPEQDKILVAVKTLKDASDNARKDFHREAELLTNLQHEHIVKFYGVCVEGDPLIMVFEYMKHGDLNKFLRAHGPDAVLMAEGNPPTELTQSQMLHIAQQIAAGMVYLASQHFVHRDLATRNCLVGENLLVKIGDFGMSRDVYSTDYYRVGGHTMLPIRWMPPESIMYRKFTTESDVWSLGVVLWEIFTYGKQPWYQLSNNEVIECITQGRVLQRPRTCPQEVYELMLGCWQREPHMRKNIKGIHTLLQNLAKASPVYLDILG

[15] = target: Dual specificity protein kinase CLK4 (Homo sapiens, UniProt Q9HAZ1)
[16] = target: Tyrosine-protein kinase Fyn (Homo sapiens, UniProt P06241)

Cc1ccnc2ccc(-c3nc4ccccc4o3)cc12 was tested, and the IC50 [1] was 3.65 µM (active) and the IC50 [2] was 71 µM (active).

For O=C(NCCc1cccs1)N1CC=C(c2c[nH]c3ncccc23)CC1, the Ki (Aurora kinase B) was > 3.98 µM (inactive), the Ki [3] was 0.0398 µM (active) and the Ki [4] was > 3.16 µM (inactive). For the same molecule, the Ki [5] was 0.158 µM (active), the Ki (Activin receptor type-1) was 1.26 µM (active) and the Ki [6] was 2.51 µM (active). The Ki [7] was > 3.16 µM (inactive), the Ki [8] was 3.16 µM (active) and the Ki [9] was > 2.51 µM (inactive). The Ki [10] was 0.0631 µM (active), the Ki [11] was > 3.98 µM (inactive) and the Ki [12] was 0.126 µM (active). The Ki [13] was > 5.01 µM (inactive), the Ki [14] was > 3.98 µM (inactive) and the Ki [15] was 0.0158 µM (active). The Ki [16] was > 6.31 µM (inactive).
